Experimental data published in US20240294499A1, “TARGETED PROTEIN DEGRADATION USING BIFUNCTIONAL COMPOUNDS THAT BIND UBIQUITIN LIGASE AND TARGET MCL-1 PROTEIN” (Captor Therapeutics S.A., priority 2021, published 2024).

Key:
[1] = target: [MCL-1]-[compound of formula (I)]-[CRBN/DDB1] complex (Homo sapiens, UniProt Q07820+Q96SW2); assay: AlphaLISA dose response ternary complex formation assay; type: binding; conditions: read-out: AlphaLISA dose response Average pEC50 by molecule (converted)
Procedure, shortened: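 EC50 comes from dose–response of AlphaLISA luminescence (excitation 680, emission 615 nm), normalised between DMSO background and an internal positive control, with concentrations past the hook point dropped. Ternary complex formed by mixing bead-bound biotin-hMCL-1 and His-CRBN/DDB1 (protein solutions 40 and 200 nM) with compound in 2% DMSO, 30 min, 25 °C.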

[2] = target: T1, MCL-1 protein (Homo sapiens, UniProt Q07820); assay: Dose-dependent MCL-1 protein degradation and induction of apoptosis in cancer cells, Western blot; type: cell-based; parameters: endogenous in cells; host or cells: OPM-2, MV-4-11, DMS 114; conditions: for degradation of MCL-1 protein and apoptosis of OPM2 cells compared to dMCL1-2 and C3: FIG. 2 and FIG. 3
T1 sequence (Q07820 whole entry): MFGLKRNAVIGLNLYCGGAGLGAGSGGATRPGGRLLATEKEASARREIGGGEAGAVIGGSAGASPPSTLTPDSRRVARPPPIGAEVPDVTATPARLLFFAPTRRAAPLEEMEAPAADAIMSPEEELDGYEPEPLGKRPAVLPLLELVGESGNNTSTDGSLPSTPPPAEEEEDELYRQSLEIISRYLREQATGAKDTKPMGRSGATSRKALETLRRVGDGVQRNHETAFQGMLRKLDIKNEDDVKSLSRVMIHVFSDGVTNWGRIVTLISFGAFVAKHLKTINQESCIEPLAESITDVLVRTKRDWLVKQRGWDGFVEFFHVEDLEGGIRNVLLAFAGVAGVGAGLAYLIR
Experimental: The experiments were performed as described for the “OPM-2 cells: MCL-1 protein degradation, Western blot” and “DMS 114 cells: MCL-1 protein degradation, Western blot”.
In addition to MCL-1 and α-Tubulin, PARP and cleaved caspase-3 were detected to monitor apoptosis.
FIG. 2 presents the results of MCL-1 protein degradation and induction of apoptosis for the OPM-2 cells treated with 204 or 215 at 0.01, 0.1 or 1 μM concentration for 6 hours or 24 hours, as indicated.
FIG. 3A presents the results of MCL-1 protein degradation and induction of apoptosis for the OPM-2 cells treated with 204 and control compounds dMCL1-2 (Papatzimas et al., J. Med. Chem. 2019, 62, 11, 5522-5540) at 0.01, 0.03, 0.1, 0.3 or 1 μM concentration for 3 hours, 6 hours or 24 hours, as indicated.
FIG. 3B presents the results of MCL-1 protein degradation and induction of apoptosis for the MV-4-11 cells treated with 204 and control compounds C3 (Wang Z et al., J. Med. Chem. 2019, 62, 17, 8152-8163) at 0.1, 1 or 10 μM concentration for 24 hours, as indicated.
FIG. 3C presents the results of MCL-1 protein degradation and induction of apoptosis for the OPM-2 cells treated with 220, 268, 346 and control compounds dMCL1-2 at 0.03, 0.1, 0.3, 1 μM concentration for 6 hours, as indicated.
FIG. 3D presents the results of MCL-1 protein degradation and induction of apoptosis for the OPM-2 cells treated with 220, 342 at 0.1, 1, 10 μM concentration for 6 hours, as indicated.
FIG. 3E presents the results of MCL-1 protein degradation and induction of apoptosis for the DMS 114 cells treated with 204, 220, 268, 346 at 0.1, 1, 10 μM concentration for 6 hours, as indicated.

[3] = target: T1, MCL-1 protein; assay: DMS 114 cells: MCL-1 protein degradation, Western blot; type: cell-based; parameters: endogenous in cells; conditions: DMS 114 cell line, 6 h treatment, 1 μM compound, vs DMSO
Experimental: The effect of various compounds of the invention on MCL-1 protein degradation in the DMS 114 cell line was investigated, using the degradation assay protocol below.
DMS 114 cells were maintained in Waymouth's MB 752/1 medium, supplemented with penicillin/streptomycin and 10% Fetal Bovine Serum (FBS).
Compound stocks were pre-diluted in DMSO and added directly to the cells growth medium (final DMSO concentration: 0.5%).
DMS 114 cells were detached, collected, centrifuged (250 rcf, 5 min), resuspended in growth medium containing 10% FBS and counted. Cell suspension was then adjusted to 0.25×10^6 cell/ml using growth medium containing 10% FBS. Afterwards, 0.5×10^6 cells were seeded on 6-well plates in 2 mL of medium per well. Plates were then place in the incubator at 37° C. until treatment. Next day, compounds in appropriate concentrations were added to the wells and the plates incubated for additional 6 or 24 hours. DMSO was used as control (final concentration 0.5%).
Following the treatment with the compounds, cells were washed on the plates, lysed with the lysis buffer (2% SDS, 50 mM Tris, pH 8.0, 100 U/ml Pierce Universal Nuclease for Cell Lysis, complete EDTA-free Protease Inhibitor Cocktail) and incubated on ice for 45 min. The amount of protein was determined via BCA assay, and the equal quantity of each sample was loaded on the precast gel for the protein separation. Following the electrophoresis and transfer to the membrane, the membrane was stained with Ponceau (0.1% (w/v) Ponceau in 5% acetic acid). After total protein detection, the stain was washed out using TBST. After the antibody staining for MCL-1, PARP, cleaved Caspase 3 and α-tubulin, the membranes were washed and signals developed.
Densitometric values for MCL-1 were normalized to total protein level (the Ponceau Staining). [%] of protein reduction is calculated in comparison to the cells treated with DMSO, which stand for 0%.
The results for the 6 h treatment with 1 μM compounds are shown in Table 10, using the following labels: • <50% for 0-49% of MCL-1 protein reduction, • ≥50% for 50-74% of MCL-1 protein reduction, • ≥75% for 75-100% of MCL-1 protein reduction.

Chain of [MCL-1]-[compound of formula (I)]-[CRBN/DDB1] complex (Q07820 whole entry): as above
Chain of [MCL-1]-[compound of formula (I)]-[CRBN/DDB1] complex (Q96SW2 whole entry): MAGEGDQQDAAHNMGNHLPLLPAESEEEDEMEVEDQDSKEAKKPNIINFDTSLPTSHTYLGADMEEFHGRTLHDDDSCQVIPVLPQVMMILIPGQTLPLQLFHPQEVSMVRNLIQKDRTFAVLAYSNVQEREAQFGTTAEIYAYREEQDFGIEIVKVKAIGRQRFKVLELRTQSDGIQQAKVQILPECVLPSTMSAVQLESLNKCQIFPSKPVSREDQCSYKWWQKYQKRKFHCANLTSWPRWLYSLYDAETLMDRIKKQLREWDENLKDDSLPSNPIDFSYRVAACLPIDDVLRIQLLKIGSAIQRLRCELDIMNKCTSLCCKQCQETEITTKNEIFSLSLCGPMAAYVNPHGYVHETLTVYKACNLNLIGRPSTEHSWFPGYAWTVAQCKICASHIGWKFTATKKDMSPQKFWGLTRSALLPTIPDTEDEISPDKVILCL
Chain of [MCL-1]-[compound of formula (I)]-[CRBN/DDB1] complex (Q16531 whole entry partner): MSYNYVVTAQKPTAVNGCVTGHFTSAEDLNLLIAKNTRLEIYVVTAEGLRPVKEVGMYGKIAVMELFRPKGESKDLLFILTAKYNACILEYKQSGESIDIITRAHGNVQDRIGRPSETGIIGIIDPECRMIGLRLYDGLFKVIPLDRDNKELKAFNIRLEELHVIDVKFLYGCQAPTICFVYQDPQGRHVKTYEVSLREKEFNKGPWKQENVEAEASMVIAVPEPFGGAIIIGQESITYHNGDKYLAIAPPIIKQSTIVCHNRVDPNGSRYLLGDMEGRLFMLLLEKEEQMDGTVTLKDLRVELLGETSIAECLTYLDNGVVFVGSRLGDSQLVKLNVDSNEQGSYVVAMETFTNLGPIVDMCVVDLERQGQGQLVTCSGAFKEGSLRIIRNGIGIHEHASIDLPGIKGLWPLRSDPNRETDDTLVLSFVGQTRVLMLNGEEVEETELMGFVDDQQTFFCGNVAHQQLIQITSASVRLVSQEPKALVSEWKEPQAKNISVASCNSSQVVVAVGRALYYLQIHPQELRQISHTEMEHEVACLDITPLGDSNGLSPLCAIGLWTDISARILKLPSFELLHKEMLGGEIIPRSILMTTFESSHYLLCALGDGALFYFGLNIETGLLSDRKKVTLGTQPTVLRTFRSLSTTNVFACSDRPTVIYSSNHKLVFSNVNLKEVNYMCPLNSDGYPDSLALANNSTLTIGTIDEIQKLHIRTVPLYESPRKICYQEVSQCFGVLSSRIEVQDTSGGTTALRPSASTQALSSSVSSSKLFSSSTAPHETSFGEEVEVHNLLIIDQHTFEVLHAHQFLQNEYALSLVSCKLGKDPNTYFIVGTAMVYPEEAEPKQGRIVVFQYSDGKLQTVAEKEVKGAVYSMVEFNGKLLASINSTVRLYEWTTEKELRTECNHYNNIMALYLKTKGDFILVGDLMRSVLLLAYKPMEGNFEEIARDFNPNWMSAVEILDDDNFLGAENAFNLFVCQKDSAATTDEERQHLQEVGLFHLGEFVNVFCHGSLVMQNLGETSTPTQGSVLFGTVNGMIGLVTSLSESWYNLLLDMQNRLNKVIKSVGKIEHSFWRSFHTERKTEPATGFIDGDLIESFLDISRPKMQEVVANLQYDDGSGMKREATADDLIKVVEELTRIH

Cc1nn(C)c(C)c1-c1c(F)ccc2c(CCCOc3cccc4cc(F)ccc34)c(C(=O)O)n(CCN3CCN(C(=O)COc4cccc5c4C(=O)N(C4CCC(=O)NC4=O)C5=O)CC3)c12 (centres unmarked) [Compound 215, 1-{2-[4-(2-{[2-(2,6-dioxopiperidin-3-yl)-1,3-dioxo-2,3-dihydro-1H-isoindol-4-yl]oxy}acetyl)piperazin-1-yl]ethyl}-6-fluoro-3-{3-[(6-fluoronaphthalen-1-yl)oxy]propyl}-7-(1,3,5-trimethyl-1H-pyrazol-4-yl)-1H-indole-2-carboxylic acid]
EC50 [1]: < 100 nM
degradation of MCL-1 protein and apoptosis of OPM2 cells compared to dMCL1-2 and C3 [2]: improved potency

Cc1nn(C)c(C)c1-c1c(Cl)ccc2c(CCCOc3cccc4cc(F)ccc34)c(C(=O)O)n(CCN3CCN(C(=O)Cn4c(C)nc5c(C(=O)NC6CCC(=O)NC6=O)cccc54)CC3)c12 (centres unmarked) [Compound 268, 6-chloro-1-{2-[4-(2-{4-[(2,6-dioxopiperidin-3-yl)carbamoyl]-2-methyl-1H-1,3-benzodiazol-1-yl}acetyl)piperazin-1-yl]ethyl}-3-{3-[(6-fluoronaphthalen-1-yl)oxy]propyl}-7-(1,3,5-trimethyl-1H-pyrazol-4-yl)-1H-indole-2-carboxylic acid]
Western blot, % of protein reduction [3]: ≥75%
degradation of MCL-1 protein and apoptosis of OPM2 cells compared to dMCL1-2 and C3 [2]: improved potency

Cc1nn2c(c1-c1c(Cl)ccc3c(CCCOc4cccc5cc(F)ccc45)c(C(=O)O)n(CCN4CCN(C(=O)COc5cccc6c5CN(C5CCC(=O)NC5=O)C6=O)CC4)c13)COCC2 (centres unmarked) [Compound 346, 6-Chloro-1-(2-(4-(2-((2-(2,6-dioxopiperidin-3-yl)-1-oxoisoindolin-4-yl)oxy)acetyl)piperazin-1-yl)ethyl)-3-(3-((6-fluoronaphthalen-1-yl)oxy)propyl)-7-(2-methyl-6,7-dihydro-4H-pyrazolo[5,1-c][1,4]oxazin-3-yl)-1H-indole-2-carboxylic acid]
EC50 [1]: < 100 nM
Western blot, % of protein reduction [3]: ≥75%
degradation of MCL-1 protein and apoptosis of OPM2 cells compared to dMCL1-2 and C3 [2]: improved potency

Cc1nn(C)c(C)c1-c1c(Cl)ccc2c(CCCOc3cccc4ccccc34)c(C(=O)O)n(CCN3CCN(C(=O)COc4cccc5c4C(=O)N(C4CCC(=O)NC4=O)C5=O)CC3)c12 (centres unmarked) [Compound 204, 6-chloro-1-(2-(4-(2-((2-(2,6-dioxopiperidin-3-yl)-1,3-dioxoisoindolin-4-yl)oxy)acetyl)piperazin-1-yl)ethyl)-3-(3-(naphthalen-1-yloxy)propyl)-7-(1,3,5-trimethyl-1H-pyrazol-4-yl)-1H-indole-2-carboxylic acid]
EC50 [1]: < 100 nM
Western blot, % of protein reduction [3]: ≥50%
degradation of MCL-1 protein and apoptosis of OPM2 cells compared to dMCL1-2 and C3 [2]: improved potency
MCL-1 protein degradation and induction of apoptosis compared with control compounds ([2]; OPM-2 cells vs dMCL1-2, MV-4-11 cells vs C3 (FIG. 3A, 3B)): more potent

Cc1nn(C)c(C)c1-c1c(Cl)ccc2c(CCCOc3cccc4cc(F)ccc34)c(C(=O)O)n(CCN3CCN(C(=O)COc4cccc5c4CN(C4CCC(=O)NC4=O)C5=O)CC3)c12 (centres unmarked) [Compound 220, 6-chloro-1-{2-[4-(2-{[2-(2,6-dioxopiperidin-3-yl)-1-oxo-2,3-dihydro-1H-isoindol-4-yl]oxy}acetyl)piperazin-1-yl]ethyl}-3-{3-[(6-fluoronaphthalen-1-yl)oxy]propyl}-7-(1,3,5-trimethyl-1H-pyrazol-4-yl)-1H-indole-2-carboxylic acid]
EC50 [1]: < 100 nM
Western blot, % of protein reduction [3]: ≥75%
degradation of MCL-1 protein and apoptosis of OPM2 cells compared to dMCL1-2 and C3 [2]: improved potency
